Experimental data from ChEMBL document CHEMBL5233266, “β-Carboline as a Privileged Scaffold for Multitarget Strategies in Alzheimer's Disease Therapy” (J Med Chem, 2021).
Values joined by “and” are separate entries in the source; they are usually repeats but may differ in a detail not shown here. Equal values may be shown once.

Assays:
[1] = target: 5-hydroxytryptamine receptor 2B (Rattus norvegicus, UniProt P30994); experiment: Displacement of [3H]-ketanserin from rat 5-HT2B expressed in mouse NIH/3T3 cells assessed as inhibition constant by Cheng-Prusoff equation analysis; format: cell-based
5-hydroxytryptamine receptor 2B (Rattus norvegicus, UniProt P30994), sequence (P30994 whole entry): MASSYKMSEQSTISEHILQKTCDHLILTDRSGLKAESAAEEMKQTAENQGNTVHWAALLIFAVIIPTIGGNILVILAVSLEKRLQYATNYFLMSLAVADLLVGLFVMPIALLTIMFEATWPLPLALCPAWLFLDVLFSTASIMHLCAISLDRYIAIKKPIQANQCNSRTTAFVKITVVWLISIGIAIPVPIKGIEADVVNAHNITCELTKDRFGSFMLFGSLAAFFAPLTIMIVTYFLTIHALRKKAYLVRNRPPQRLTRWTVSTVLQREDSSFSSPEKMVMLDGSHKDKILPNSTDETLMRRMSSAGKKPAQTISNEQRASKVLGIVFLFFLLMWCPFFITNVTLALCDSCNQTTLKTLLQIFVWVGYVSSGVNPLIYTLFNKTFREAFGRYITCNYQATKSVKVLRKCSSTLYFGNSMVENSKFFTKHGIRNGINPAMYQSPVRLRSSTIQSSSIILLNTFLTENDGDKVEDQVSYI

[2] = target: 5-hydroxytryptamine receptor 2B (Homo sapiens, UniProt P41595); experiment: Binding affinity to 5-HT2B (unknown origin) assessed as equilibrium binding constant
5-hydroxytryptamine receptor 2B (Homo sapiens, UniProt P41595), sequence (P41595 whole entry): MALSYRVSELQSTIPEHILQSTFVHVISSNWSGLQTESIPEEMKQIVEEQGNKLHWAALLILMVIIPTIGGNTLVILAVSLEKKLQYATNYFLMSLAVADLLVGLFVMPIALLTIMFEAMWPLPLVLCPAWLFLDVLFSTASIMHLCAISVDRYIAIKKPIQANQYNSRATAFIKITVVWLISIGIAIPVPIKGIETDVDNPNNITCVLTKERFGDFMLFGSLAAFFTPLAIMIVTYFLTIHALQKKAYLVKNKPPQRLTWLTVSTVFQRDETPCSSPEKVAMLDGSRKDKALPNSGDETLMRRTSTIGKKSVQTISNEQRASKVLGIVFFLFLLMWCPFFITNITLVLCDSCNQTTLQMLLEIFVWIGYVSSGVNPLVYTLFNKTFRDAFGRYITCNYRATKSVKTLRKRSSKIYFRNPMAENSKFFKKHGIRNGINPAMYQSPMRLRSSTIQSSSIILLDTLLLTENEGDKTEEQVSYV

[3] = target: T1, Gamma-aminobutyric acid receptor subunit alpha-1 (Homo sapiens, UniProt P14867); experiment: Binding affinity to human recombinant GABAA alpha1 receptor assessed as inhibition constant incubated for 1 hrs by liquid scintillation counting analysis
T1 sequence (P14867 whole entry): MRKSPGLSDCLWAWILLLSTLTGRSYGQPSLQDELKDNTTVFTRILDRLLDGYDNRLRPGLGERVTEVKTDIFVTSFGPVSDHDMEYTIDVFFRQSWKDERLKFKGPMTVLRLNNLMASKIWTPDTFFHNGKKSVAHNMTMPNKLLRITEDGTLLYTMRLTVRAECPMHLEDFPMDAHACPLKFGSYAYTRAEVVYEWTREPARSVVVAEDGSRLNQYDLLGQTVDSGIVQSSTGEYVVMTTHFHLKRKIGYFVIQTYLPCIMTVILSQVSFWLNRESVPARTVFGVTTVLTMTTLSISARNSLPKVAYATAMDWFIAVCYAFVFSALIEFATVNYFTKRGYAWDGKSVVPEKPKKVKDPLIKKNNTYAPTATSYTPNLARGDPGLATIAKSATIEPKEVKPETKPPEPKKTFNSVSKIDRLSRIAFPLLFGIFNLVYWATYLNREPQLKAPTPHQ

[4] = target: T2, Gamma-aminobutyric acid receptor subunit alpha-2 (Homo sapiens, UniProt P47869); experiment: Binding affinity to human recombinant GABAA alpha2 receptor assessed as inhibition constant incubated for 1 hrs by liquid scintillation counting analysis
T2 sequence (P47869 whole entry): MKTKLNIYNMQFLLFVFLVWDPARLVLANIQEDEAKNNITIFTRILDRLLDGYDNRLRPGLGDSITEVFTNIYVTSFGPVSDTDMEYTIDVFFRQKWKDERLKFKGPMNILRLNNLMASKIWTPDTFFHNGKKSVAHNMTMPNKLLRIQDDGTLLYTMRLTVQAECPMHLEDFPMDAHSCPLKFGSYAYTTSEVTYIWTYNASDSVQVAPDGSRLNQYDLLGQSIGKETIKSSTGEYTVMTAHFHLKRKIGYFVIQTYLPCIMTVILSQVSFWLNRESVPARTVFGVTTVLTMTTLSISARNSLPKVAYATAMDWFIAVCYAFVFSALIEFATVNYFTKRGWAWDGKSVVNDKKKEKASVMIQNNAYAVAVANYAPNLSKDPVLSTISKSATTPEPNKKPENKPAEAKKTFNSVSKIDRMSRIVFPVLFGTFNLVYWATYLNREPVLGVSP

[5] = target: T3, Gamma-aminobutyric acid receptor subunit alpha-3 (Homo sapiens, UniProt P34903); experiment: Binding affinity to human recombinant GABAA alpha3 receptor assessed as inhibition constant incubated for 1 hrs by liquid scintillation counting analysis
T3 sequence (P34903 whole entry): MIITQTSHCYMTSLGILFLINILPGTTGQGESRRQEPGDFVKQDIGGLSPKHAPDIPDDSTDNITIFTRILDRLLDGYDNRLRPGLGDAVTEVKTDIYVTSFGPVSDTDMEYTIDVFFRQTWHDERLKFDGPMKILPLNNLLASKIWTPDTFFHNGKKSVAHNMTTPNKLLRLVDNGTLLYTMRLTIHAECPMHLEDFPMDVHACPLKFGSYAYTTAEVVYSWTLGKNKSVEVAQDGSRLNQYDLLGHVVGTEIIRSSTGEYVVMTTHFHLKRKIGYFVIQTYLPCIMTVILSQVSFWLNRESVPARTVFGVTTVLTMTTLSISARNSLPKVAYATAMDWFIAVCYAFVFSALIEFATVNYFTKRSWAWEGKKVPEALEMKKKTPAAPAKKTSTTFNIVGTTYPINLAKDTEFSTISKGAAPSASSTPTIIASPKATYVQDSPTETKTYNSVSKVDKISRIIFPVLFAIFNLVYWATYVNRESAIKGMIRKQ

[6] = target: T4, Gamma-aminobutyric acid receptor subunit alpha-5 (Homo sapiens, UniProt P31644); experiment: Binding affinity to human recombinant GABAA alpha5 receptor assessed as inhibition constant incubated for 1 hrs by liquid scintillation counting analysis
T4 sequence (P31644 whole entry): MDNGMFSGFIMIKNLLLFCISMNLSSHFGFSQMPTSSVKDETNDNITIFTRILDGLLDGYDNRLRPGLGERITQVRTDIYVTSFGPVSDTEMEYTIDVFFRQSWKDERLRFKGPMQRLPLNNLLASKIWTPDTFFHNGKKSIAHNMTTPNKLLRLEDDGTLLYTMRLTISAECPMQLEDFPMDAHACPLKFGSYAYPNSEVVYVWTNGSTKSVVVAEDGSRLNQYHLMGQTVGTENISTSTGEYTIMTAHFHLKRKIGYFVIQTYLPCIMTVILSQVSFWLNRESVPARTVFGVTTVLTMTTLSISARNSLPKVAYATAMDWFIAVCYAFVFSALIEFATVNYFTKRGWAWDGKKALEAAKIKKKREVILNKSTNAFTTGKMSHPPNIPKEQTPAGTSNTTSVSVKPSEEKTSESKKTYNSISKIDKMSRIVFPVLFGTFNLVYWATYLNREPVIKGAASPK

[7] = target: Gamma-aminobutyric acid receptor subunit alpha-6 (Homo sapiens, UniProt Q16445); experiment: Binding affinity to human recombinant GABAA alpha6 receptor assessed as inhibition constant incubated for 1 hrs by liquid scintillation counting analysis
Gamma-aminobutyric acid receptor subunit alpha-6, sequence (Q16445 whole entry): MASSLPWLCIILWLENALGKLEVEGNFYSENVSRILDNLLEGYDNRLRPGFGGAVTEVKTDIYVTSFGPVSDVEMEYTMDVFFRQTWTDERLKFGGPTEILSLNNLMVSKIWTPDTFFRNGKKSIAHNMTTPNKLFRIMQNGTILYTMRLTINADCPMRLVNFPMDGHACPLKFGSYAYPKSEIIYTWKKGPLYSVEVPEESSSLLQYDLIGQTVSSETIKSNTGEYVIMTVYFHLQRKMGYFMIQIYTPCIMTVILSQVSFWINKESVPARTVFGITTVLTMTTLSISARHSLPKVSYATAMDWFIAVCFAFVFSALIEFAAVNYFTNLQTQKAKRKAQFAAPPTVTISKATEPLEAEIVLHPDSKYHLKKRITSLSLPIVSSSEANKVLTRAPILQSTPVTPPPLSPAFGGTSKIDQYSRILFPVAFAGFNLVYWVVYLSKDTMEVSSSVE

[8] = target: GABA-A receptor; anion channel; experiment: Inhibition of GABAA receptor (unknown origin); format: protein-complex assay, Homo sapiens
[9] = target: T5, Acetylcholinesterase (Homo sapiens, UniProt P22303); experiment: Inhibition of AChE (unknown origin) using acetylthiocholine iodide as substrate incubated for 20 mins followed by substrate addition by Ellman's method
T5 sequence (P22303 whole entry): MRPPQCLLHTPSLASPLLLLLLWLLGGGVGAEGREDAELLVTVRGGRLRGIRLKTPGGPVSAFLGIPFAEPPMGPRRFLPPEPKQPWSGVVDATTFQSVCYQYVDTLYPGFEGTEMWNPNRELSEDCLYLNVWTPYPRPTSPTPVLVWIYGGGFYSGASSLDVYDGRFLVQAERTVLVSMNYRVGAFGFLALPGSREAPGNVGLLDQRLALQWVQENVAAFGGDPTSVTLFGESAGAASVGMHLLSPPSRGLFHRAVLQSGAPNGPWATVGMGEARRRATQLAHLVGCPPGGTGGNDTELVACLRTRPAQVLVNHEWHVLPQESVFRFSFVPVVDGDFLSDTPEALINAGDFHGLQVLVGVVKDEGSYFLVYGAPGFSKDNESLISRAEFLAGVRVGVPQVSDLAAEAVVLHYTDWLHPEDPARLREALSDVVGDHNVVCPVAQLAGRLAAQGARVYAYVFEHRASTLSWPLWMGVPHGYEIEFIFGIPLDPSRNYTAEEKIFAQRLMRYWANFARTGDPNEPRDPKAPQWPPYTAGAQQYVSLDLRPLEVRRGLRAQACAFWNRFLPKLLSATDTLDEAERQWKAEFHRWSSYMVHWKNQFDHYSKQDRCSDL

[10] = target: T6, Cholinesterase (Homo sapiens, UniProt P06276); experiment: Inhibition of BuChE (unknown origin) using acetylthiocholine iodide as substrate incubated for 20 mins followed by substrate addition by Ellman's method
T6 sequence (P06276 whole entry): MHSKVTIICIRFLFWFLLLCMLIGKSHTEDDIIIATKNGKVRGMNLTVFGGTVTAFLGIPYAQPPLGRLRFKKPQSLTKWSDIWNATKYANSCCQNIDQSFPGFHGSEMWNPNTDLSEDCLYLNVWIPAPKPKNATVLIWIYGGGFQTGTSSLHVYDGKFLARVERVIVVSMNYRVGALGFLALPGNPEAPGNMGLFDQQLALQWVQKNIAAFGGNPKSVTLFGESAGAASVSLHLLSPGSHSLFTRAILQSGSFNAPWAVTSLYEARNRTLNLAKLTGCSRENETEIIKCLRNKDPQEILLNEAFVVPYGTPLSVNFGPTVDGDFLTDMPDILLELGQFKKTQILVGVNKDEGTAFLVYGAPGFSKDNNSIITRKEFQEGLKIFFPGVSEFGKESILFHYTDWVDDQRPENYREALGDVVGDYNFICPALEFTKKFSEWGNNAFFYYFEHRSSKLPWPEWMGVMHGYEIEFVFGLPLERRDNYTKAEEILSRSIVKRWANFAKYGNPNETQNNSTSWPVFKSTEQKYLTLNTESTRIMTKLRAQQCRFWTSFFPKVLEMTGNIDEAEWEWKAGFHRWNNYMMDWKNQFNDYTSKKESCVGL

[11] = target: T7, Amine oxidase [flavin-containing] A (Homo sapiens, UniProt P21397); experiment: Inhibition of MAO-A (unknown origin)
T7 sequence (P21397 whole entry): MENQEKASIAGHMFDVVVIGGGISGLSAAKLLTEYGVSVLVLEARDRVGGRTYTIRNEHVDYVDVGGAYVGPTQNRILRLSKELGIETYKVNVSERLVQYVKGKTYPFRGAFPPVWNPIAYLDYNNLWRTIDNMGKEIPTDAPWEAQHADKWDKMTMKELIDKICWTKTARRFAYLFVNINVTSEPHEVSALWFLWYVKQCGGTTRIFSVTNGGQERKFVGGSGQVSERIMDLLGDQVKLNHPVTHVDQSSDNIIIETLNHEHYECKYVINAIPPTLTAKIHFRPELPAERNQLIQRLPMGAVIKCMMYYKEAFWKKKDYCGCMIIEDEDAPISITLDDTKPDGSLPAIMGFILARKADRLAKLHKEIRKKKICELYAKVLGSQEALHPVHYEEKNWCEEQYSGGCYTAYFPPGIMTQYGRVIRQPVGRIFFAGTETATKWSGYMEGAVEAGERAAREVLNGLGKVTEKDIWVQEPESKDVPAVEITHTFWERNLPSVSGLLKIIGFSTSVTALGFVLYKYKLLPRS

[12] = target: T6, Cholinesterase; experiment: Inhibition of BuChE (unknown origin)
[13] = target: T5, Acetylcholinesterase; experiment: Inhibition of AChE (unknown origin) incubated for 40 mins by Ellman's method
[14] = target: GABA-A receptor; anion channel; experiment: Displacement of [3H]flunitrazepam from GABAA (unknown origin ) receptor by radioligand binding assay; format: protein-complex assay, Homo sapiens
[15] = target: Gamma-aminobutyric acid receptor subunit alpha-4 (Homo sapiens, UniProt P48169); experiment: Binding affinity to human recombinant GABAA alpha4 receptor assessed as inhibition constant incubated for 1 hrs by liquid scintillation counting analysis
Gamma-aminobutyric acid receptor subunit alpha-4, sequence (P48169 whole entry): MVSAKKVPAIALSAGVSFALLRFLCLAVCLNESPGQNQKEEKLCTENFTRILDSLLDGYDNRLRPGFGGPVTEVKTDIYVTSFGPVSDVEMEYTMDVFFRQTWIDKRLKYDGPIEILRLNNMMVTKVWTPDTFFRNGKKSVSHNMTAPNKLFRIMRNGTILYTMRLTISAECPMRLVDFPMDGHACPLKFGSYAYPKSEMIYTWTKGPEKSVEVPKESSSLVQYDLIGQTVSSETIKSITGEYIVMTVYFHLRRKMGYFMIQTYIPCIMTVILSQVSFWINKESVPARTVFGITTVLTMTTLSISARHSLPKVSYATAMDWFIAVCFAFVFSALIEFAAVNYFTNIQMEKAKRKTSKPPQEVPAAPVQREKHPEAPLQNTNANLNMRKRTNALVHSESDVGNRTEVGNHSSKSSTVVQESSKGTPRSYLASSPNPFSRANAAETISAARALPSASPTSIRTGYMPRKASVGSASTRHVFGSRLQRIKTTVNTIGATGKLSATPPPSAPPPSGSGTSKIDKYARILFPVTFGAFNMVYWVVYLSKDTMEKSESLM

[16] = target: T5, Acetylcholinesterase; experiment: Inhibition of AChE (unknown origin)

## COc1ccc(CC2NCCc3c2[nH]c2c(C)cc(C)cc32)cc1OC (stereo unspecified)
[1]
  Ki: 0.2 nM
[2]
  Kb: < 0.3 nM and 0.08 nM

## COc1ccc2c(c1)[nH]c1c2ncc2[nH]c3ccccc3c21
[3]
  Ki: 3 nM
[4]
  Ki: 12 nM
[5]
  Ki: 11 nM
[6]
  Ki: 230 nM
[7]
  Ki: > 10000 nM
[8]
  IC50: 4 nM

## CN1c2ccc(OCc3ccccc3)cc2C(=O)N2CCc3c([nH]c4ccccc34)C21 (stereo unspecified)
[9]
  IC50: 3000 nM
[10]
  IC50: 880 nM

## C=C[C@H]1[C@@H](/C(=C/O)C(=O)OC)C[C@H]2c3[nH]c4ccccc4c3CCN2[C@H]1O[C@@H]1O[C@H](CO)[C@@H](O)[C@H](O)[C@H]1O
[9]
  IC50: 1900 nM

## Cc1nccc2c1[nH]c1cc(OCC(C)C)ccc12
[11]
  IC50: 5 nM

## Cc1nccc2c1[nH]c1cc(CO)ccc12
[11]
  IC50: 40 nM

## COc1ccc(CC2NCCc3c2[nH]c2cccc(SC)c32)cc1OC (stereo unspecified)
[1]
  Ki: 0.1 nM
[2]
  Kb: < 0.3 nM

## Cc1nccc2c1[nH]c1cc(OCCc3ccccc3)ccc12
[11]
  IC50: 5 nM

## Cn1c2ccccc2c2cc[n+](-c3ccc(Br)cc3)cc21
[12]
  IC50: 32000 nM and 116000 nM
[13]
  IC50: 240 nM

## CCCCCCCNC(=O)Oc1ccc2c(c1)CN1CCc3c([nH]c4ccccc34)C1N2C (stereo unspecified)
[9]
  IC50: > 10000 nM
[10]
  IC50: 77 nM

## CCCn1c2cc(OCc3cn(Cc4ccccc4Cl)nn3)ccc2c2ccnc(C)c21
[11]
  IC50: 260 nM

## Clc1ccc2c(c1)[nH]c1c2ncc2[nH]c3ccccc3c21
[3]
  Ki: 4 nM
[4]
  Ki: 12 nM
[5]
  Ki: 24 nM
[6]
  Ki: 210 nM
[7]
  Ki: > 10000 nM
[8]
  IC50: 4 nM

## COCc1c(-c2cc(C)on2)ncc2[nH]c3ccc4oc(C(C)C)nc4c3c12
[8]
  IC50: 0.9 nM

## CCc1cccc2[nH]c3c(c12)CCNC3Cc1ccc(OC)c(OC)c1 (stereo unspecified)
[1]
  Ki: 0.1 nM
[2]
  Kb: < 0.3 nM

## Cc1ccc([N+]2=Cc3c(c4ccccc4n3C)CC2)cc1
[13]
  IC50: 1500 nM

## CCCOc1cc2c(cn1)[nH]c1ccccc12
[14]
  IC50: 3 nM
[4]
  Ki: 52 nM
[5]
  Ki: 69 nM
[15]
  Ki: 1000 nM
[6]
  Ki: 590 nM
[7]
  Ki: > 1000 nM

## COc1ccc2c3ccnc(C)c3n(C)c2c1
[11]
  IC50: 11 nM

## Cc1ccc(-[n+]2ccc3c4ccccc4n(C)c3c2)cc1
[16]
  IC50: 290 nM and 300 nM
[12]
  IC50: 32000 nM and 116000 nM
[13]
  IC50: 240 nM

## COCc1ccc2c(c1)[nH]c1c(C)nccc12
[11]
  IC50: 30 nM

## C=CCOc1ccc2c(c1)[nH]c1c(C)nccc12
[11]
  IC50: 5 nM

## Cc1nccc2c1[nH]c1cc(OCCCC(F)(F)F)ccc12
[11]
  IC50: 5 nM

## Cn1c2c(c3ccccc31)CC[N+](c1ccc(Br)cc1Br)=C2
[13]
  IC50: > 10000 nM

## COCc1c(C(=O)OC(C)C)ncc2[nH]c3ccc4oc(C(C)C)cc4c3c12
[8]
  IC50: 0.8 nM
